Experiment [1] deals with T1, CDK4/CyclinD1 (Homo sapiens, UniProt P11802).
T1 construct: purchased Thermofisher PR8064A
The experiment can be described thus: Assay for inhibition of CDK4/CyclinD1 (Caliper microfluidic kinase assay). It counts as biochemical. The essentials:
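Caliper microfluidic mobility-shift assay tracking phosphorylation of 1 μM FL-34 peptide by 1 nM CDK4/CyclinD1 with 200 μM ATP in HEPES pH 7.5 buffer with 10 mM MgCl2. Reaction ran 3 h at room temperature, was stopped with EDTA, and IC50 came from a 4-parameter sigmoidal fit.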

Experiment [2] has as its target T2, CDK6/CyclinD3 (Homo sapiens, UniProt Q00534).
T2 construct: purchased Carna 04-107
The experiment can be described thus: Assay for inhibition of CDK6/CyclinD3 (Caliper microfluidic kinase assay). It counts as biochemical. The method, then: The CDK6 enzyme assay for IC50 determination was performed as follows. Microfluidic kinase detection technology (Caliper) was used to monitor the phosphorylation of peptide substrate by CDK6/CyclinD3. The total reaction volume is 15 μL containing buffer A (100 mM HEPES (pH 7.5), 0.1% BSA, 0.01% Triton X-100, 1 mM DTT, 10 mM MgCl2, 10 μM Sodium Orthovanadate, 10 μM Beta-Glycerophosphate), 300 μM ATP, 2 nM CDK6/CyclinD3 (Carna, 04-107), 1 μM FL-34 (5-FAM-[…]), and the test compound at appropriate dilutions in DMSO. All components were added to the 384-well plate (Corning, 4514), and incubated at Room Temperature for 3 hours. The reaction was terminated by addition of 15 μL Stop Buffer (180 mM HEPES (pH 7.5), 20 mM EDTA, Coating-3 reagent (PerkinElmer, 760050)). The plate was then loaded on Caliper EZ Reader (EZ Reader II, PerkinElmer, HD-4HYSG2772), and the reaction mixtures including substrate and product were sipped into the microfluidic chip for separation and detection. The IC50 values of the test compound were determined by fitting the inhibition curves by 4 parameter sigmoidal dose-response model using the Xlfit5/GraphPad Prism 5 software.

Experiment [3] concerns T47D breast cancer cells. The experiment can be described thus: Anti-proliferation assay in T47D cell (Cyquant, day 6). It counts as cell-based, human. The following applies: Homo sapiens, T47D, anti-proliferation, T47D cells; read-out: T47D IC50. From the text:
T47D is a human breast cancer cell line commonly used in biomedical research involving the hormonal expression of cancer cells. T47D cells are distinct from other human breast cancer cells in that their progesterone receptors (PR) are not regulated by estradiol, a hormone that is abundant within the cells themselves. T47D cells have been employed in studies of the effects of progesterone on breast cancer and the corresponding transcriptional regulation caused by introduced drugs. The cells have been noted to be extremely resistant to estrogens and antiestrogens.
T47D breast cancer cells from American Type Culture Collection (ATCC, HTB-133) were plated at 3000 cells/well in 96-well plates, and were incubated in RPMI 1640 medium (Gibco, 31800105) with 10% Fetal Bovine Serum (FBS, Biowest, FB-1058) at 37° C., 5% CO2. After overnight incubation, baseline values were measured of the samples from one plate using Cyquant reagent (Invitrogen, C35011) following manufacturer's recommendations. Cells were incubated with the detection reagent for 1 hour at 37° C., and then the fluorescence was measured with excitation at 485 nm and emission at 535 nm using Spectra Max M5 (Molecular Devices, HD-4HYSG3196). Other plates were dosed with compounds at a ten-point dose concentration from 10 μM to 0.51 nM in a 3-fold dilution scheme. On day 6 after compound addition, Cyquant reagent was added and the fluorescence was measured using Spectra Max M5. The IC50 values of the test compound's anti-proliferation activity were determined from the baseline subtracted viability readout curve using Xlfit5/GraphPad Prism 5 software.

Experiment [4] concerns the target T3, CDK2/CyclinE1 (Homo sapiens, UniProt P24941).
T3 construct: purchased SignalChem C29-18G
The experiment can be described thus: Assay for inhibition of CDK2/CyclinE1 (Caliper microfluidic kinase assay). The format is biochemical. The essentials: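 Caliper microfluidic mobility-shift assay: 5 nM CDK2/CyclinE1, 100 μM ATP, 5 μM FL-18 peptide (5-FAM-QSPKKG-NH2) in pH 7.5 HEPES buffer with MgCl2, DTT, BSA, Triton X-100. Incubated 3 hours at room temperature, EDTA-stopped; IC50 from 4-parameter sigmoidal fit.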

Where [5] appears, read: CDK2/CyclinE1, read-out: CDK2 IC50.
Where [6] appears, read: CDK2/CyclinE1, 100 μM ATP, read-out: CDK2 IC50.

Read-outs that look alike come from different tables or passages of the source.

T2 sequence (Q00534 whole entry): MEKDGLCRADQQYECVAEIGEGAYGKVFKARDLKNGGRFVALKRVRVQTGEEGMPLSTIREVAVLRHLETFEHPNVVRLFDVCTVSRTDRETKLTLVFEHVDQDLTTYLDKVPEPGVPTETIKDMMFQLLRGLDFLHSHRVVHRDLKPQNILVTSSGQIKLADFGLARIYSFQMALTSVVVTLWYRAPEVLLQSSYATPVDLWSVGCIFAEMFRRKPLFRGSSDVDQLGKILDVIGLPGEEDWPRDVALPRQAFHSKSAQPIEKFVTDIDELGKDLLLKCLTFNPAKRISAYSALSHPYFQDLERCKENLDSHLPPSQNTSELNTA
T2 sequence (P30281 whole entry partner): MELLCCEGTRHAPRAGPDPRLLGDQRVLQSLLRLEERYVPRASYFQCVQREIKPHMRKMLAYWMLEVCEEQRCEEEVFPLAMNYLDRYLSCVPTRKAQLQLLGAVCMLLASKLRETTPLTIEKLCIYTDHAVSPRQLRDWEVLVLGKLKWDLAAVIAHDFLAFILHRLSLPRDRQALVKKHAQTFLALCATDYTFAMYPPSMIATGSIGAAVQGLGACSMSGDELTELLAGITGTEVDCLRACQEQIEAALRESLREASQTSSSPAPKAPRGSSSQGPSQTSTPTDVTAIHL
T1 sequence (P11802 whole entry): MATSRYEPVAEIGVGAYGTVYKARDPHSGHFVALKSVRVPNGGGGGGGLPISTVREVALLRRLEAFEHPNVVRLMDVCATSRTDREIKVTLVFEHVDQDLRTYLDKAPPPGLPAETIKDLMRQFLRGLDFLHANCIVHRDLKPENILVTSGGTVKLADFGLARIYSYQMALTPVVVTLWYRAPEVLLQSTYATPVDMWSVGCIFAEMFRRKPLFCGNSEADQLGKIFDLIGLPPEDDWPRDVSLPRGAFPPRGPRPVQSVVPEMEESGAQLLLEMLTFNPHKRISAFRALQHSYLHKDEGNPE
T1 sequence (P24385 whole entry partner): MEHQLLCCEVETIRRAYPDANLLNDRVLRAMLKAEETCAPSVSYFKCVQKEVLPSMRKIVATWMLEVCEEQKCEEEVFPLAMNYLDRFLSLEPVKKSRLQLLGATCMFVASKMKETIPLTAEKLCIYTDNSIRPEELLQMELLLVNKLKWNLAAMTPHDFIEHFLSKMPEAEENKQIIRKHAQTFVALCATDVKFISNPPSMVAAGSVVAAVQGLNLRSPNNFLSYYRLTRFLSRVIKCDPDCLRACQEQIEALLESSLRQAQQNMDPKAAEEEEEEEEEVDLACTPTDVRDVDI

Usually IC50 stands for the midpoint of a concentration-inhibition curve. Take `CCN1CCN(Cc2ccc(Nc3ncc(F)c(-c4cc5c(ncn5C(C)C)c(OC)n4)n3)nc2)CC1` [compound 87]: the IC50 in experiment [1] (CDK4/CyclinD1) is under 0.01 µM; in experiment [2] (CDK6/CyclinD3) it was 0.01 to 0.1 µM; in experiment [3], 0.1 to 0.5 µM.
Turning to `COc1nc(-c2nc(Nc3ccc(N4CCOCC4=O)cc3F)ncc2F)cc2c1nc(C)n2C(C)C` [compound 92], the IC50 in experiment [1] (CDK4/CyclinD1) was under 0.01 µM; in experiment [2] (CDK6/CyclinD3), 0.01 to 0.1 µM; in experiment [4] (setting [5]), 0.01 to 0.1 µM.
For the compound `CCN1CCN(Cc2ccc(Nc3ncc(F)c(-c4cc5c(nc(C)n5C(C)C)c(OC)n4)n3)nc2)CC1` [compound 95], the IC50 in experiment [1] (CDK4/CyclinD1) was 0.01 to 0.1 µM; in experiment [2] (CDK6/CyclinD3), 0.01 to 0.1 µM; in experiment [4] (setting [5]) it was over 1 µM.
`COc1nc(-c2nc(Nc3ccc(CN4CCN5CCCC5C4)cn3)ncc2F)cc2c1nc(C)n2C(C)C` (centres unmarked) [compound 101]: the IC50 in experiment [1] (CDK4/CyclinD1) and in experiment [2] (CDK6/CyclinD3) was 0.01 to 0.1 µM in each case.
In the case of `COc1nc(-c2nc(NC3CCN(S(C)(=O)=O)CC3)ncc2F)cc2c1nc(C)n2C(C)C` [compound 102], the IC50 in experiment [1] (CDK4/CyclinD1) was 0.01 to 0.1 µM; in experiment [2] (CDK6/CyclinD3), 0.1 to 1 µM; in experiment [4] (setting [5]) it was 0.1 to 1 µM.
In the case of `COc1nc(-c2nc(Nc3ccc(N4CCN(C5CCNCC5)CC4=O)cn3)ncc2F)cc2c1nc(C)n2C(C)C` [compound 139], the IC50 is under 0.01 µM in experiment [1] (CDK4/CyclinD1, 200 μM ATP); under 0.01 µM in experiment [2] (CDK6/CyclinD3, 300 μM ATP); over 1 µM in experiment [4] (setting [6]).
In the case of `Cc1nn2ccc(-c3ccnc(Nc4ccc(N5CCC(N(C)C)CC5=O)cc4)n3)cc2c1C(C)C` (centres unmarked) [compound 177], the IC50 in experiment [1] (CDK4/CyclinD1, 200 μM ATP) was under 0.01 µM; in experiment [2] (CDK6/CyclinD3, 300 μM ATP), under 0.01 µM; in experiment [4] (setting [6]), under 0.01 µM.
With `CC(C)c1cnn2ccc(-c3ccnc(Nc4ccc5c(c4)CS(=O)(=O)C5)n3)cc12` [compound 179], the IC50 in experiment [1] (CDK4/CyclinD1, 200 μM ATP) is under 0.01 µM; in experiment [2] (CDK6/CyclinD3, 300 μM ATP) it was under 0.01 µM; in experiment [4] (setting [6]), under 0.01 µM.
Take `CC(C)c1cnn2ccc(-c3ccnc(Nc4ccc(N5CCC(O)CC5=O)cn4)n3)cc12` (centres unmarked) [compound 183]: the 50% inhibitory concentration (IC50) in experiment [1] (CDK4/CyclinD1, 200 μM ATP) fell in the range of 0.01 to 0.1 µM; in experiment [2] (CDK6/CyclinD3, 300 μM ATP), 0.01 to 0.1 µM; in experiment [4] (setting [6]), 0.01 to 0.1 µM.
Consider `CNC1CCN(C(=O)c2ccc(Nc3nccc(-c4ccn5ncc(C(C)C)c5c4)n3)cc2)C1` (centres unmarked) [compound 189], for which the IC50 is under 0.01 µM in experiment [1] (CDK4/CyclinD1, 200 μM ATP); under 0.01 µM in experiment [2] (CDK6/CyclinD3, 300 μM ATP); under 0.01 µM in experiment [4].
Consider `CC(C)c1cnn2ccc(-c3ccnc(Nc4ccc(N5CCC(C)(N)CC5=O)cc4F)n3)cc12` (centres unmarked) [compound 213], for which the IC50 was under 0.01 µM in experiment [1] (CDK4/CyclinD1, 200 μM ATP); 0.01 to 0.1 µM in experiment [2] (CDK6/CyclinD3, 300 μM ATP); under 0.01 µM in experiment [4] (setting [6]).
Consider `CC(C)c1cnn2ccc(-c3ccnc(Nc4ccc(N5CCNCC5=O)cc4F)n3)cc12` [compound 224], for which the IC50 in experiment [1] (CDK4/CyclinD1, 200 μM ATP) was under 0.01 µM; in experiment [2] (CDK6/CyclinD3, 300 μM ATP), 0.01 to 0.1 µM; in experiment [4] (setting [6]) it was under 0.01 µM.
In the case of `CC(C)(C)c1cnn2ccc(-c3ccnc(Nc4ccc(N5CCNCC5=O)cc4F)n3)cc12` [compound 225], the IC50 is under 0.01 µM in experiment [1] (CDK4/CyclinD1, 200 μM ATP); 0.01 to 0.1 µM in experiment [2] (CDK6/CyclinD3, 300 μM ATP); under 0.01 µM in experiment [4] (setting [6]).
With `Cc1nc2c(F)nc(-c3ccnc(Nc4ccc(S(N)(=O)=O)cc4)n3)cc2n1C(C)C` [compound 288], the IC50 in experiment [1] (CDK4/CyclinD1, 200 μM ATP) was 0.01 to 0.1 µM; in experiment [2] (CDK6/CyclinD3, 300 μM ATP) it was 0.01 to 0.1 µM; in experiment [4] (setting [6]) it was under 0.01 µM.
With `CC(C)n1cnc2c(F)nc(-c3ccnc(Nc4ccc(N5CCC(C)(N)CC5=O)cc4F)n3)cc21` (centres unmarked) [compound 292], the IC50 is under 0.01 µM in experiment [1] (CDK4/CyclinD1, 200 μM ATP); under 0.01 µM in experiment [2] (CDK6/CyclinD3, 300 μM ATP); under 0.01 µM in experiment [4] (setting [6]).
As to `CC(C)n1cnc2c(F)nc(-c3ccnc(Nc4ccc(S(N)(=O)=O)cc4)n3)cc21` [compound 297], the IC50 was under 0.01 µM in experiment [1] (CDK4/CyclinD1, 200 μM ATP); 0.01 to 0.1 µM in experiment [2] (CDK6/CyclinD3, 300 μM ATP); under 0.01 µM in experiment [4] (setting [6]).

The values are drawn from patent publication US20220296595A1, “CDK INHIBITORS” (QILU REGOR THERAPEUTICS INC., priority 2019, published 2022).
